Columns and labels:
Type in all cases: functional
Clonostachys rosea [1] = assay: Toxicity against Bionectria ochroleuca assessed as inhibition of mycelial growth at 0.011 to 0.066 mg/ml
Clonostachys rosea [2] = assay: Toxicity against Bionectria ochroleuca assessed as inhibition of conidial germination at 0.011 to 0.066 mg/ml
Clonostachys rosea [3] = assay: Toxicity against Bionectria ochroleuca assessed as inhibition of mycelial growth at 0.001 to 0.009 ug/ml
Clonostachys rosea [4] = assay: Toxicity against Bionectria ochroleuca assessed as inhibition of conidial germination at 0.001 to 0.009 ug/ml
Clonostachys rosea [5] = assay: Toxicity against Bionectria ochroleuca assessed as inhibition of conidial germination at 0.3 to 1.8 mg/ml measured every 24 hr intervals over 192 hr
Clonostachys rosea [6] = assay: Toxicity against Bionectria ochroleuca assessed as inhibition of mycelial growth at 0.3 to 1.8 mg/ml measured every 24 hr intervals over 192 hr
Clonostachys rosea [7] = assay: Toxicity against Bionectria ochroleuca I19 assessed as inhibition of mycelial growth at 0.3 to 1.8 mg/ml measured every 24 hr intervals over 192 hr
Clonostachys rosea [8] = assay: Toxicity against Bionectria ochroleuca I60 assessed as inhibition of mycelial growth at 0.3 to 1.8 mg/ml measured every 24 hr intervals over 192 hr
Clonostachys rosea [9] = assay: Toxicity against Bionectria ochroleuca I61 assessed as inhibition of mycelial growth at 0.3 to 1.8 mg/ml measured every 24 hr intervals over 192 hr
Clonostachys rosea [10] = assay: Toxicity against Bionectria ochroleuca I62 assessed as inhibition of mycelial growth at 0.3 to 1.8 mg/ml measured every 24 hr intervals over 192 hr
Clonostachys rosea [11] = assay: Toxicity against Bionectria ochroleuca assessed as inhibition of mycelial growth at 0.005 to 0.033 ug/ml
Clonostachys rosea [12] = assay: Toxicity against Bionectria ochroleuca assessed as inhibition of conidial germination at 0.005 to 0.033 ug/ml
Clonostachys rosea [13] = assay: Toxicity against Bionectria ochroleuca assessed as inhibition of mycelial growth at 0.25 to 1.50 mg/ml measured every 24 hr intervals over 192 hr
Clonostachys rosea [14] = assay: Toxicity against Bionectria ochroleuca I19 assessed as inhibition of mycelial growth at 0.25 to 1.50 mg/ml measured every 24 hr intervals over 192 hr
Clonostachys rosea [15] = assay: Toxicity against Bionectria ochroleuca I60 assessed as inhibition of mycelial growth at 0.25 to 1.50 mg/ml measured every 24 hr intervals over 192 hr
Clonostachys rosea [16] = assay: Toxicity against Bionectria ochroleuca I61 assessed as inhibition of mycelial growth at 0.25 to 1.50 mg/ml measured every 24 hr intervals over 192 hr
Clonostachys rosea [17] = assay: Toxicity against Bionectria ochroleuca I62 assessed as inhibition of mycelial growth at 0.25 to 1.50 mg/ml measured every 24 hr intervals over 192 hr
Clonostachys rosea [18] = assay: Toxicity against Bionectria ochroleuca assessed as inhibition of conidial germination at 0.25 to 1.50 mg/ml measured every 24 hr intervals over 192 hr
Clonostachys rosea [19] = assay: Toxicity against Bionectria ochroleuca I61 assessed as inhibition of conidial germination at 0.25 to 1.50 mg/ml measured every 24 hr intervals over 192 hr
Clonostachys rosea [20] = assay: Toxicity against Bionectria ochroleuca I62 assessed as inhibition of conidial germination at 0.25 to 1.50 mg/ml measured every 24 hr intervals over 192 hr
Clonostachys rosea [21] = assay: Toxicity against Bionectria ochroleuca assessed as inhibition of mycelial growth at 0.009 to 0.055 ug/ml
Clonostachys rosea [22] = assay: Toxicity against Bionectria ochroleuca assessed as inhibition of conidial germination at 0.009 to 0.055 ug/ml
Clonostachys rosea [23] = assay: Toxicity against Bionectria ochroleuca I19 assessed as inhibition of mycelial growth at 0.003 to 0.020 mg/ml measured every 24 hr intervals over 192 hr
Clonostachys rosea [24] = assay: Toxicity against Bionectria ochroleuca I60 assessed as inhibition of mycelial growth at 0.003 to 0.020 mg/ml measured every 24 hr intervals over 192 hr
Clonostachys rosea [25] = assay: Toxicity against Bionectria ochroleuca I61 assessed as inhibition of mycelial growth at 0.003 to 0.020 mg/ml measured every 24 hr intervals over 192 hr
Clonostachys rosea [26] = assay: Toxicity against Bionectria ochroleuca I62 assessed as inhibition of mycelial growth at 0.003 to 0.020 mg/ml measured every 24 hr intervals over 192 hr
Clonostachys rosea [27] = assay: Toxicity against Bionectria ochroleuca assessed as inhibition of conidial germination at 0.003 to 0.020 ug/ml measured every 24 hr intervals over 192 hr
Clonostachys rosea [28] = assay: Toxicity against Bionectria ochroleuca assessed as inhibition of mycelial growth at 0.003 to 0.020 ug/ml measured every 24 hr intervals over 192 hr
Clonostachys rosea [29] = assay: Toxicity against Bionectria ochroleuca I60 assessed as inhibition of mycelial growth at 0.048 to 0.292 mg/ml measured every 24 hr intervals over 192 hr
Clonostachys rosea [30] = assay: Toxicity against Bionectria ochroleuca I61 assessed as inhibition of mycelial growth at 0.048 to 0.292 mg/ml measured every 24 hr intervals over 192 hr
Clonostachys rosea [31] = assay: Toxicity against Bionectria ochroleuca I62 assessed as inhibition of mycelial growth at 0.048 to 0.292 mg/ml measured every 24 hr intervals over 192 hr
Clonostachys rosea [32] = assay: Toxicity against Bionectria ochroleuca assessed as inhibition of mycelial growth at 0.048 to 0.292 ug/ml measured every 24 hr intervals over 192 hr
Clonostachys rosea [33] = assay: Toxicity against Bionectria ochroleuca I19 assessed as inhibition of mycelial growth at 0.048 to 0.292 mg/ml measured every 24 hr intervals over 192 hr
Clonostachys rosea [34] = assay: Toxicity against Bionectria ochroleuca assessed as inhibition of conidial germination at 0.048 to 0.292 ug/ml measured every 24 hr intervals over 192 hr
Clonostachys rosea [35] = assay: Toxicity against Bionectria ochroleuca I60 assessed as inhibition of conidial germination at 0.048 to 0.292 mg/ml measured every 24 hr intervals over 192 hr
Clonostachys rosea [36] = assay: Toxicity against Bionectria ochroleuca I61 assessed as inhibition of conidial germination at 0.048 to 0.292 mg/ml measured every 24 hr intervals over 192 hr
Clonostachys rosea [37] = assay: Toxicity against Bionectria ochroleuca I62 assessed as inhibition of conidial germination at 0.048 to 0.292 mg/ml measured every 24 hr intervals over 192 hr
Clonostachys rosea [38] = assay: Toxicity against Bionectria ochroleuca I19 assessed as inhibition of conidial germination at 0.048 to 0.292 mg/ml measured every 24 hr intervals over 192 hr
Clonostachys rosea [39] = assay: Toxicity against Bionectria ochroleuca assessed as inhibition of conidial germination at 0.9 to 1.13 mg/ml measured every 24 hr intervals over 192 hr
Clonostachys rosea [40] = assay: Toxicity against Bionectria ochroleuca assessed as inhibition of mycelial growth at 0.9 to 1.13 mg/ml measured every 24 hr intervals over 192 hr
Clonostachys rosea [41] = assay: Toxicity against Bionectria ochroleuca assessed as inhibition of mycelial growth at 0.12 to 0.75 mg/ml measured every 24 hr intervals over 192 hr
Clonostachys rosea [42] = assay: Toxicity against Bionectria ochroleuca assessed as inhibition of conidial germination at 0.12 to 0.75 mg/ml measured every 24 hr intervals over 192 hr
Clonostachys rosea [43] = assay: Toxicity against Bionectria ochroleuca I19 assessed as inhibition of conidial germination at 0.12 to 0.75 mg/ml measured every 24 hr intervals over 192 hr
Clonostachys rosea [44] = assay: Toxicity against Bionectria ochroleuca I60 assessed as inhibition of conidial germination at 0.12 to 0.75 mg/ml measured every 24 hr intervals over 192 hr
Clonostachys rosea [45] = assay: Toxicity against Bionectria ochroleuca I61 assessed as inhibition of conidial germination at 0.12 to 0.75 mg/ml measured every 24 hr intervals over 192 hr
Clonostachys rosea [46] = assay: Toxicity against Bionectria ochroleuca I62 assessed as inhibition of conidial germination at 0.12 to 0.75 mg/ml measured every 24 hr intervals over 192 hr
Clonostachys rosea [47] = assay: Toxicity against Bionectria ochroleuca I19 assessed as inhibition of mycelial growth at 0.006 to 0.037 mg/ml measured every 24 hr intervals over 192 hr
Clonostachys rosea [48] = assay: Toxicity against Bionectria ochroleuca I60 assessed as inhibition of mycelial growth at 0.006 to 0.037 mg/ml measured every 24 hr intervals over 192 hr
Clonostachys rosea [49] = assay: Toxicity against Bionectria ochroleuca assessed as inhibition of conidial germination at 0.006 to 0.037 ug/ml measured every 24 hr intervals over 192 hr
Clonostachys rosea [50] = assay: Toxicity against Bionectria ochroleuca I61 assessed as inhibition of mycelial growth at 0.006 to 0.037 mg/ml measured every 24 hr intervals over 192 hr
Clonostachys rosea [51] = assay: Toxicity against Bionectria ochroleuca I62 assessed as inhibition of mycelial growth at 0.006 to 0.037 mg/ml measured every 24 hr intervals over 192 hr
Clonostachys rosea [52] = assay: Toxicity against Bionectria ochroleuca assessed as inhibition of mycelial growth at 0.006 to 0.037 ug/ml measured every 24 hr intervals over 192 hr

SMILES: CCc1cccc(C)c1N(C(=O)CCl)[C@@H](C)COC [S-METOLACHLOR]
- growth inhibition (GI) (Clonostachys rosea [1]): 3.6%
- inhibition (INH) (Clonostachys rosea [2]): 2.2%

SMILES: CCCCOC(=O)[C@@H](C)Oc1ccc(Oc2ccc(C(F)(F)F)cn2)cc1 [FLUAZIFOP-P-BUTYL]
- growth inhibition (GI) (Clonostachys rosea [3]): 3.6%
- inhibition (INH) (Clonostachys rosea [4]): 2.2%

SMILES: O=C1C2CC=CCC2C(=O)N1SC(Cl)(Cl)Cl (centres undefined) [CAPTAN]
- inhibition (INH) (Clonostachys rosea [5]): 61%
- growth inhibition (GI) (Clonostachys rosea [6]): 75%
- growth inhibition (GI) (Clonostachys rosea [7]): 81.8%
- growth inhibition (GI) (Clonostachys rosea [8]): 82.2%
- growth inhibition (GI) (Clonostachys rosea [9]): 81.8%
- growth inhibition (GI) (Clonostachys rosea [10]): 86.2%

SMILES: O=C(O)CNCP(=O)(O)O [GLYPHOSATE]
- growth inhibition (GI) (Clonostachys rosea [11]): 3.6%
- inhibition (INH) (Clonostachys rosea [12]): 2.2%

SMILES: CCOC(=O)CC(SP(=S)(OC)OC)C(=O)OCC (centres undefined) [MALATHION]
- growth inhibition (GI) (Clonostachys rosea [13]): 22%
- growth inhibition (GI) (Clonostachys rosea [14]): 36.87%
- growth inhibition (GI) (Clonostachys rosea [15]): 34.59%
- growth inhibition (GI) (Clonostachys rosea [16]): 32.67%
- growth inhibition (GI) (Clonostachys rosea [17]): 29.32%
- inhibition (INH) (Clonostachys rosea [18]): 10%
- inhibition (INH) (Clonostachys rosea [19]): 12.7%
- inhibition (INH) (Clonostachys rosea [20]): 14.9%

SMILES: CCCN(CCC)c1c([N+](=O)[O-])cc(C(F)(F)F)cc1[N+](=O)[O-] [TRIFLURALIN]
- growth inhibition (GI) (Clonostachys rosea [21]): 3.6%
- inhibition (INH) (Clonostachys rosea [22]): 2.2%

SMILES: CC[C@H](C)[C@H]1O[C@]2(C=C[C@@H]1C)C[C@@H]1C[C@@H](C/C=C(\C)[C@@H](O[C@H]3C[C@H](OC)[C@@H](O[C@H]4C[C@H](OC)[C@@H](O)[C@H](C)O4)[C@H](C)O3)[C@@H](C)/C=C/C=C3\CO[C@@H]4[C@H](O)C(C)=C[C@@H](C(=O)O1)[C@]34O)O2.CO[C@H]1C[C@H](O[C@H]2[C@H](C)O[C@@H](O[C@@H]3/C(C)=C/C[C@@H]4C[C@@H](C[C@]5(C=C[C@H](C)[C@@H](C(C)C)O5)O4)OC(=O)[C@@H]4C=C(C)[C@@H](O)[C@H]5OC/C(=C\C=C\[C@@H]3C)[C@]54O)C[C@@H]2OC)O[C@@H](C)[C@@H]1O [ABAMECTIN]
- growth inhibition (GI) (Clonostachys rosea [23]): 5.79%
- growth inhibition (GI) (Clonostachys rosea [24]): 6.51%
- growth inhibition (GI) (Clonostachys rosea [25]): 9.79%
- growth inhibition (GI) (Clonostachys rosea [26]): 9.64%
- inhibition (INH) (Clonostachys rosea [27]): 1%
- growth inhibition (GI) (Clonostachys rosea [28]): 0.5%

SMILES: CC1(C)C(C(=O)OC(C#N)c2cccc(Oc3ccccc3)c2)C1(C)C (centres undefined) [FENPROPATHRIN]
- growth inhibition (GI) (Clonostachys rosea [29]): 3.93%
- growth inhibition (GI) (Clonostachys rosea [30]): 7.16%
- growth inhibition (GI) (Clonostachys rosea [31]): 10.77%
- growth inhibition (GI) (Clonostachys rosea [32]): 1%
- growth inhibition (GI) (Clonostachys rosea [33]): 8.18%
- inhibition (INH) (Clonostachys rosea [34]): 6%
- inhibition (INH) (Clonostachys rosea [35]): 10.1%
- inhibition (INH) (Clonostachys rosea [36]): 10.7%
- inhibition (INH) (Clonostachys rosea [37]): 9.9%
- inhibition (INH) (Clonostachys rosea [38]): 12.7%

SMILES: CC(C)NC(=O)N1CC(=O)N(c2cc(Cl)cc(Cl)c2)C1=O [IPRODIONE]
- inhibition (INH) (Clonostachys rosea [39]): 55%
- growth inhibition (GI) (Clonostachys rosea [40]): 79%

SMILES: COC(=O)NC(=S)Nc1ccccc1NC(=S)NC(=O)OC [THIOPHANATE METHYL]
- growth inhibition (GI) (Clonostachys rosea [41]): 90%
- inhibition (INH) (Clonostachys rosea [42]): 31%
- inhibition (INH) (Clonostachys rosea [43]): 40.8%
- inhibition (INH) (Clonostachys rosea [44]): 37.4%
- inhibition (INH) (Clonostachys rosea [45]): 39.4%
- inhibition (INH) (Clonostachys rosea [46]): 69.3%

SMILES: CN1COCN(Cc2cnc(Cl)s2)/C1=N\[N+](=O)[O-] [THIAMETHOXAM]
- growth inhibition (GI) (Clonostachys rosea [47]): 0.36%
- growth inhibition (GI) (Clonostachys rosea [48]): 2.65%
- inhibition (INH) (Clonostachys rosea [49]): 1%
- growth inhibition (GI) (Clonostachys rosea [50]): 0.51%
- growth inhibition (GI) (Clonostachys rosea [51]): 1.82%
- growth inhibition (GI) (Clonostachys rosea [52]): 0.1%

SMILES: CC12CC1(C)C(=O)N(c1cc(Cl)cc(Cl)c1)C2=O (centres undefined) [PROCYMIDONE]
- growth inhibition (GI) (Clonostachys rosea [41]): 66%
- inhibition (INH) (Clonostachys rosea [42]): 59%

From ChEMBL document CHEMBL3044654, “Sensitivity of four isolates of Clonostachys rosea to pesticides used in the strawberry crop in Brazil” (2012)
